From patent publication US4032635A, “Pharmaceutical method for the therapy of immune diseases” (Zaidan Hojin Biseibutsu Kagaku Kenkyu Kai, priority 1975, dated 1977)
Like-named read-outs stand apart in the source and are kept apart here.

Tests used:
[1] = tested on: nucleic acid and/or protein synthesis; conditions: cited from earlier work
[2] = tested on: experimental allergic encephalomyelitis (EAE); conditions: cited from earlier work
[3] = tested on: autoimmune diseases, some infection allergies and dermatological contact allergies, transplantation immunological responses; conditions: in vivo; cited from earlier work
[4] = tested on: humoral and cell-mediated immunities; conditions: cited from earlier work
[5] = tested on: experimental allergic encephalomyelitis (EAE); assay: Suppression of experimental allergic encephalomyelitis (EAE); format: in vivo, guinea pigs; conditions: for recurrence of paralysis after discontinuation: after discontinuation of the drug
Text: By injecting basic protein (B.P.) the extract from central nervous tissue, together with Freund's complete adjuvant, a typical EAE symptom develops. Guinea pigs show drastic reduction of body weight and development of paralysis about ten days after injection with BP and they finally die within 17 days after the injection of BP.

[6] = tested on: passive cutaneous anaphylaxis (PCA); assay: Suppression of passive cutaneous anaphylaxis (PCA); format: in vivo, guinea pigs; conditions: dilution giving a 10 mm. diameter blue zone; for Max. Dilution of Antiserum, i.p.: i.p. 50 mg./kg.; for Max. Dilution of Antiserum, Oral: oral 100 mg./kg., control 1060
Protocol: The compounds of Formula (I) are active in suppressing passive cutaneous anaphylaxis (PCA) in guinea pigs. Guinea pigs received intradarmally serial dilutions of antiserum (0.1 ml.), which was obtained from guinea pigs immunized with a mixture of egg albumin and Freund's complete adjuvant. At the time of sensitization with antiserum, the compound of Formula (I) was administered either orally (100 mg./kg.) or intraperitoneally (50 mg./kg.).
Four hours later the animals were challenged by intravenous injection of a mixture of 5 mg. egg albumin and Evans blue dye. The reaction was measured 30 minutes later by the blue zone which emerged at the point of antiserum injection.

[7] = tested on: contact allergy induced by dinitrochlorobenzene (DNCB); assay: Suppression of contact allergy induced by dinitrochlorobenzene (DNCB); format: in vivo, guinea pigs; design: key to Skin Lesion Score, Animal No. 1 / Skin Lesion Score, Animal No. 2 / Skin Lesion Score, Animal No. 3: +: slight erythema; ++: marked erythema and slight swelling; +++: marked induration and swelling; conditions: 100 mg./kg. i.p. at 0.5, 24 and 48 hours before challenge; for Skin Lesion Score, Animal No. 1 / Skin Lesion Score, Animal No. 2 / Skin Lesion Score, Animal No. 3: control None +++
Protocol: For example, approximately 0.1 ml. of a 10% solution of DNCB in acetone was administered percutaneously on the ear. Fourteen days later animals were skin tested on a shaved flank by topical spotting (about 0.05 ml.) of a 0.1% solution of DNCB in acetone. Skin lesions were evaluated and scored 24 hours later as follows:
Guinea pigs readily develop contact hypersensitivities of the delayed-type by simple topical application of DNCB.

[8] = tested on: primary antibody formation to sheep red blood cells (SRBC), spleen cells; assay: Suppression of primary antibody formation (plaque forming cells, Jerne's method); format: in vivo, mice (ddY-strain); conditions: for inhibition in vivo at 1 mg: Erythrocyte, ip, 96 h, 1 mg./mouse i.p., read-out: Suppression, Plaque Forming Cells (suppression rate of primary antibody formation)
Protocol: 10^8 sheep red blood cells (SRBC) were injected intravenously into ddY-strain mice to immunize the animals, when the compounds of Formula (I) were administered intraperitoneally.
Each compound was administered intraperitoneally in the dosage of 1 mg./mouse.

[9] = tested on: Delayed-Type Hypersensitivity (DTH) to sheep red blood cells (SRBC); assay: Suppression of delayed-type hypersensitivity (SRBC footpad swelling); format: in vivo, mouse; conditions: for inhibition in vivo at 1 mg: Erythrocyte, 1 mg./mouse i.p.; for suppression of DTH reaction: anti-inflammatory drugs and protease-inhibitors, 1 mg./mouse
Protocol: The compounds of Formula (I) show suppression of various delayed-type hypersensitivity. In reference to the method by Lagrange [J. Exp. Med. 139, 528 (1974)], 10^8 sheep red blood cells (SRBC) without adjuvant were subcutaneously injected into the mouse hind footpad to immunize the animal. Four days later the animals were challenged by subcutaneous injection of 10^8 SRBC into another footpad. DTH response was measured as the increase in the thickness of footpad 24 hours after the injection of SRBC.
Varying doses of Compound-1 were administered orally or intraperitoneally either at the time of immunization (day 0) or challenge (day 4).
In FIG. 1 the ordinate indicates the swelling (× 0.1 mm.) of mice footpads on day 5 and the abscissa indicates the dose of Compound-1 per mouse administered by the oral (right) and intraperitoneal (left) routes. Solid line curve indicates the relationship when Compound-1 was administered on day 0 and the dotted line curve indicates the relationship when given on day 4.
The compounds were administered intraperitoneally in a dose 1 mg./mouse at the time of immunization (day 0) or challenge (day 4). Table 1 includes the results of humoral antibody response described later.

[10] = tested on: systemic anaphylactic shock; assay: Suppression of systemic anaphylactic shock (egg albumin); format: in vivo, mice; conditions: for time of death after induction, Animal No. 1: control 16; for time of death after induction, Animal No. 2: control 25; for time of death after induction, Animal No. 3: control 27; for time of death after induction, Mouse No. 1: control 15
Protocol: The mice were immunized by a subcutaneous injection of a mixture of 0.1 ml. (100 mcg.) egg albumin and 0.1 ml. Freund's complete adjuvant, and used for experiment four months thereafter. In control mice sensitized in the above manner, the shock symptom emerged after induction by intravenous injection of 100 mcg. egg albumin and most of the animals died from shock within about 40 minutes.
Table 3A show the suppression effect with Compound -1 when given as a single dose (0.25 or 1.0 mg./mouse, i.p.) at the time of sensitization. […] In the animals receiving the test drug, the time until death after induction was somewhat delayed and most of the animals survived the shock.

[11] = tested on: red blood cells; assay: Heat-induced hemolysis of red blood cells / cell membrane stabilization; format: cell-based; conditions: Compound-1 compared with mefenamic acid or indomethacin
[12] = tested on: primary antibody formation in spleen cell culture; assay: Antibody formation in spleen cell culture in vitro (hemolytic plaque assay); format: cell-based, mice
Protocol: Additional experiment to evaluate the effect of Compound-1 on primary antibody formation was made by spleen cell culture in vitro. According to the method described by Mishell and Dutton [J. Exp. Med., 126, 423 (1967)], dissociated spleen cells prepared from normal mice spleens were cultured with SRBC as antigen and at initiation of cultures Compound-1 was added, and then four days later, antibody formation in cultures was determined by Jerne's hemolytic plaque assay.

[13] = tested on: rats; assay: One-month daily administration; format: in vivo; conditions: oral or i.p., daily 12.5, 50 or 200 mg./kg.
Protocol: Compound-1 and Compound-2 were given orally or intraperitoneally to rats in daily doses of 12.5, 50 or 200 mg./kg., respectively, for one month.

[14] = Acute toxicity, intraperitoneal; conditions: mouse, in vivo, ip, mice, read-out: LD50 (approximate)
Protocol: Acute toxicological studies were carried out on mice by intraperitoneal administration of the compounds of Formula (I). The approximate LD50 values for representative compounds are given as follows: […]

[15] = tested on: carrageenin-induced edema; conditions: 1 mg./mouse; cited from earlier work
[16] = 10 mg. i.p. once daily, days 3 to 21 after antigen, five animals
[17] = 96 h, at challenge (day 4), read-out: Suppression, Delayed-Type Hypersensitivity, Administered at Induction (suppression rate)
[18] = ip, 0 h, at immunization (day 0), read-out: Suppression, Delayed-Type Hypersensitivity, Administered at Immunization (suppression rate)
[19] = 0.25 mg./mouse i.p. at the time of sensitization
[20] = 1 mg./mouse i.p. at 0.5 and 5 hours before challenge
[21] = 1.0 mg./mouse i.p. at the time of sensitization

For Sc1ncnc2nc[nH]c12 [6-mercaptopurine], the “effect on nucleic acid and/or protein synthesis” value [1] is listed as “disrupt nucleic acid and/or protein synthesis”, the “EAE after discontinuation of the drug (known agents)” value ([2]; after discontinuation and following a latent period) is listed as “the animals often develop paralytic EAE” and the “suppression of development of EAE (known agents)” value ([2]; at such high doses as would cause toxicity) is listed as “can suppress the development of EAE”. For the same compound, the “effectiveness in therapy of autoimmune diseases, allergies, transplantation responses” value [3] was “effective in the therapy of autoimmune diseases, some infection allergies and dermatological contact allergies”, the “dose at which effective / cytotoxicity” value [4] was “effective in general only at near-lethal doses owing to their cytotoxicity” and the “inhibition of humoral and cell-mediated immunities” value [4] was “inhibit both humoral and cell-mediated immunities”.
In the case of O=C(Nc1cc(Cl)c(O)c(Cl)c1)c1ccccc1O [Compound-1, 3',5'-Dichloro-2,4'-dihydroxybenzanilide], the “time of paralysis after antigen injection” value ([5]; 10 mg. i.p. once daily, days 3 to 21, four of five animals) is reported as 13 to 16 days, the “animals with paralysis to a certain degree and course of symptoms” value [5, 16] is reported as “four others showed paralysis to a certain degree at 13-16 days but the symptoms of EAE soon disappeared” and the “animals without sign of paralysis” value [5, 16] is reported as “one gave no sign of the development of paralysis”. The “recurrence of paralysis after discontinuation” value [5] was “no more paralytic symptoms recurred”, the “recurrence of paralysis after discontinuation” value ([5]; listed as compound-1) was “without recrudescence of paralysis after discontinuation of the drug” and the “suppressive effect on EAE” value ([5]; guinea pigs) was “potent suppressive effect on EAE”. The “Max. Dilution of Antiserum, i.p.” value ([6]; control 1024) was 64, the “Max. Dilution of Antiserum, i.p.” value ([6]; control 1350) was 315 and the “Max. Dilution of Antiserum, Oral” value [6] was 548. The “inhibition of the response to DNCB” value [7] was “significant inhibition of the response to DNCB”, the “Skin Lesion Score, Animal No. 1” value [7] was “+” and the “Skin Lesion Score, Animal No. 2” value [7] was “+”. For the same compound, the “Skin Lesion Score, Animal No. 3” value [7] was “++”, the “primary antibody formation in spleen cells of treated mice (FIG. 3)” value ([8]; 1000, 250, 62.5 and 15.6 mcg./mouse i.p.) was “apparently suppressed in proportion to increased amounts of Compound-1” and the inhibition in vivo at 1 mg [8] was > 75%. For the same compound, the inhibition in vivo at 1 mg [9, 17] was > 75%, the inhibition in vivo at 1 mg [9, 18] was 0 to 25% and the “DTH suppression, administered on day 4 (FIG. 1)” value ([9]; varying doses, oral or i.p., at challenge (day 4)) was “DTH was suppressed in mice sensitized by footpad inoculation with SRBC”. For the same compound, the “DTH suppression, given at sensitization (day 0) (FIG. 1)” value ([9]; varying doses, oral or i.p., at sensitization (day 0)) was “not active when given at the time of sensitization (day 0)”, the “time of death after induction, Animal No. 1” value [10, 19] was 18 min and the “time of death after induction, Animal No. 2” value [10, 19] was 21 min. For the same compound, the “time of death after induction, Animal No. 3” value [10, 19] was 22 min, the “time of death after induction, Mouse No. 1” value [10, 20] was 35 min and the “time of death after induction, Animal No. 1” value [10, 21] was 22 min. For the same compound, the “time of death after induction, Animal No. 2” value [10, 21] was 23 min, the “time of death after induction, Animal No. 3” value [10, 21] was 30 min and the “suppression of heat-induced hemolysis of red blood cells” value (shortened to “suppression … of red blood cells”) [11] was “suppressed the heat-induced hemolysis of red blood cells to about the same extent as did mefenamic acid or indomethacin”. For the same compound, the “cytotoxicity / anti-proliferative effect in vitro” value ([12]; in vitro) was “not cytotoxic nor anti-proliferative in vitro”, the “number of nucleated cells in culture” value ([12]; spleen cell culture in vitro) was “no changes in the number of nucleated cells” and the “viable cell count in culture” value ([12]; spleen cell culture in vitro) was “no changes in the number of nucleated cells nor in the viable cell count”. The “number of plaque forming cells in culture” value ([12]; spleen cell culture in vitro, four days) was “significantly decreased”, the “symptoms or abnormality attributable to the drug” value [13] was “no particular symptoms or abnormality attributable to the drug dosage was noted” and the weight gain [13] was “normal”. It also gave an LD50 [14] of 2400 mg/kg.
With O=C(Nc1cc(Cl)cc(Cl)c1O)c1ccccc1O [Compound-2, 3',5'-Dichloro-2,2'-dihydroxybenzanilide] the “Max. Dilution of Antiserum, Oral” value [6] was 736, the “inhibition of the response to DNCB” value [7] was “significant inhibition of the response to DNCB” and the “Skin Lesion Score, Animal No. 1” value [7] was “+”. The “Skin Lesion Score, Animal No. 2” value [7] was “++”, the “Skin Lesion Score, Animal No. 3” value [7] was “++” and the inhibition in vivo at 1 mg [8] was > 75%. For the same compound, the inhibition in vivo at 1 mg [9, 17] was > 75%, the inhibition in vivo at 1 mg [9, 18] was 0 to 25% and the “time of death after induction, Mouse No. 1” value [10, 20] was 10 min. The “time of death after induction, Mouse No. 2” value ([10]; 1 mg./mouse i.p. at 0.5 and 5 hours before challenge, control 18) was 35 min, the “symptoms or abnormality attributable to the drug” value [13] was “no particular symptoms or abnormality attributable to the drug dosage was noted” and the weight gain [13] was “normal”. The LD50 [14] was 2500 mg/kg.
For Cn1cnc([N+](=O)[O-])c1Sc1ncnc2nc[nH]c12 [azathioprine], the “effect on nucleic acid and/or protein synthesis” value [1] is given as “disrupt nucleic acid and/or protein synthesis”, the “dose at which effective / cytotoxicity” value [4] is given as “effective in general only at near-lethal doses owing to their cytotoxicity” and the “inhibition of humoral and cell-mediated immunities” value [4] is given as “inhibit both humoral and cell-mediated immunities”.
In the case of COc1ccc2c(c1)c(CC(=O)O)c(C)n2C(=O)c1ccc(Cl)cc1 [indomethacin], the “suppression of DTH reaction” value [9] is given as “little suppression of this DTH reaction”, the “suppression of carrageenin-induced edema” value [15] is given as “strongly suppress carrageenin-induced edema” and the “suppression … of red blood cells” value [11] is given as “about the same extent”.
In the case of Cc1cccc(Nc2ccccc2C(=O)O)c1C [mefenamic acid], the “suppression of DTH reaction” value [9] is given as “little suppression of this DTH reaction”, the “suppression of carrageenin-induced edema” value [15] is given as “strongly suppress carrageenin-induced edema” and the “suppression … of red blood cells” value [11] is given as “about the same extent”.
